# Measured values from ChEMBL document CHEMBL2074403, “The solvents cremophor EL and Tween 80 modulate daunorubicin resistance in the multidrug resistant Ehrlich ascites tumor” (Cancer Commun, 1990).
# What was measured:
# [1] = biological target: T1, ATP-dependent translocase ABCB1 (Homo sapiens, UniProt P08183); test: TP_TRANSPORTER: inhibition of Daunorubicin efflux (Daunorubicin: 5 uM, Tween 80: 0.01 %(v/v)) in EHR2/DNR+ cells; type: functional, cell-based; details: mouse
# [2] = biological target: T1, ATP-dependent translocase ABCB1; test: TP_TRANSPORTER: inhibition of Daunorubicin efflux (Daunorubicin: 5 uM, Cremophor EL: 0.01 %(v/v)) in EHR2/DNR+ cells; type: functional, cell-based; details: mouse
# T1 sequence (P08183 whole entry): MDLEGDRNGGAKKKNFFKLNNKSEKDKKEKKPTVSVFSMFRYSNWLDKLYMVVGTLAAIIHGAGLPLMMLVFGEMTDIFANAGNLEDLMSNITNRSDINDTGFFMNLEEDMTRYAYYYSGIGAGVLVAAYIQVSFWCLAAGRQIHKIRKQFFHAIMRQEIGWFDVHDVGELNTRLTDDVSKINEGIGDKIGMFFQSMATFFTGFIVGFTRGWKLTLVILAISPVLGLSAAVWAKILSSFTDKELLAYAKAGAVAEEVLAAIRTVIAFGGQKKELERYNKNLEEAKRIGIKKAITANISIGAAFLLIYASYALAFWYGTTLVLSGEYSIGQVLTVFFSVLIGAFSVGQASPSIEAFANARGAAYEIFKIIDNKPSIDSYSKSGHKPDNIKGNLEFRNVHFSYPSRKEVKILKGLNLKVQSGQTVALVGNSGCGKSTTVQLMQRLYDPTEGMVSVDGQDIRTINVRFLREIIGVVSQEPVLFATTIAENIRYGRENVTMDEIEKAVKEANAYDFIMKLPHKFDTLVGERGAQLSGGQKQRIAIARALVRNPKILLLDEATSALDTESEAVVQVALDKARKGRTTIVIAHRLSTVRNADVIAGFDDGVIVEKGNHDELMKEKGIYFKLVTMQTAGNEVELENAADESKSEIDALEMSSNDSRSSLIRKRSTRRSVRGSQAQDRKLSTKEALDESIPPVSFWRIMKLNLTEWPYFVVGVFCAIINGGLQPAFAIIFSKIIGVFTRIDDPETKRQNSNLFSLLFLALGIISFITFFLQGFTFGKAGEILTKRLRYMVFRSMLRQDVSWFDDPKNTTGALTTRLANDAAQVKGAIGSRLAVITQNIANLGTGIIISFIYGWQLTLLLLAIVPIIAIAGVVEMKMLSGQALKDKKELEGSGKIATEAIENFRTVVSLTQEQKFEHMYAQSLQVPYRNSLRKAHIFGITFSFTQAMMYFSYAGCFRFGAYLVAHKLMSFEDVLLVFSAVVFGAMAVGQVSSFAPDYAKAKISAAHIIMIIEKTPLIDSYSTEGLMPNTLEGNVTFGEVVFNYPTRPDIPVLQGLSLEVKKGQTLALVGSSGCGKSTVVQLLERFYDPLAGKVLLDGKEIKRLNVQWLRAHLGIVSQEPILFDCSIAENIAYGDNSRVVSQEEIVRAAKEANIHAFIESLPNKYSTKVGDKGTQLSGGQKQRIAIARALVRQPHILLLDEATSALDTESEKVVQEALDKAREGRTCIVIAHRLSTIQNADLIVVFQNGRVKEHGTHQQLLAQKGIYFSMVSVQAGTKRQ
Activity [1],Activity [2],Compound
inhibitor [+],,CCCCCCCC/C=C\CCCCCCCC(=O)OCCOCC(OCCO)C1OCC(OCCO)C1OCCO (configuration not stated) [TWEEN 80]
,inhibitor [+],CREMOPHOR EL
